Data on twelve compounds can be found in patent publication US9326984B2, “Compounds and pharmaceutical compositions for treating disorders associated with the 5-HT1A and 5-HT2A receptors” (priority 2010, dated 2016).

As a reminder, the inhibition is the relative decrease from the control value, in per cent.

In one experiment the target is T1, 5-HT2A receptors (Rattus norvegicus, UniProt P14842).
T1 construct: The assay tissue was rat cortex; from tissue; host or cells: rat cortex
Description: In vitro affinity (radioligand binding inhibition) assay, 3[H]-ketanserin, rat cortex. To be noted: for IC50: 3[H]-ketanserin 1 nM, rat cortex, 3-3000 nM in duplicate, read-out: 5-HT2A CI50; for 5-HT2A CI50/affinity compared with the comparative compound: comparison in words versus Flibanserin (and Example 1); for inhibition at 0.3 µM / inhibition at 1 µM / inhibition at 3 µM: read-out: 5-HT2A Inhibition Percentage. As for the experimental part: (§1) The determination of the activity of the synthesized compounds was conducted through assays assessing affinity with the 5-HT1A and 5-HT2A serotonin receptors. The assays used are based on the binding ratings of the substances being tested at different concentrations, compared to the affinity in the single concentration of the radioligands (markers) that have a specific affinity for these receptors.
(§2) These assays, known as binding assays and also known as inhibition experiments, are able to determine the affinity of a substance through the receptor, provided that this substance is soluble under the assay conditions.
(§3) In an inhibition experiment, the quantity of an inhibitor substance (non radioactive—sample or compound being tested) included in the incubation is the only variable, meaning that it is possible to determine for each test drug concentration, the binding inhibition percentage of the radioligand.
(§4) CI50 is a value defined as the concentration of an unbranded substance (test sample) required to inhibit the specific binding of the radioligand in 50% of the receptors.
(§5) The affinity assays with the 5-HT1A and 5-HT2A receptors of the compounds addressed by this invention were conducted by the Biochemical and Molecular Pharmacology Laboratory at the Biomedical Science Institute in Rio de Janeiro Federal University (UFRJ), using its own protocols.
(§6) […] The development of the experiment protocol to assess compounds with affinity for the 5-HT1A receptors was developed on the basis of the experiments conducted by Hall et al (Journal of Neurochemistry (1985) 44: 1685-1696); Mongeau et al (Brain Research (1992) 590: 229-238) and Peroutka (Journal of Neurochemistry (1986) 47: 529-540). The 5-HT2A receptors were based on the studies conducted by Johnson et al (Naunyn-Schmiedeberg's Arch. Pharmacol. (1996) 354 (2): 205-209); Leysen et al (Molecular Pharmacology (1982) 21: 301-314) and Nelson et al (Journal of Pharmacology and Experimental Therapeutics (1993) 265: 1272-1279).
(§7) In order to determine the affinity with the 5-HT2A receptors, 3[H]-ketanserin (1 nM) was used as a ligand and ketanserin (1 μM) as a non-specific ligand. The assay tissue was rat cortex. Table 1 below summarizes the CI50 values obtained for the inventive compounds presented in Examples 1 and 8. In order to determine the CI50 of these compounds, the inhibition assays were conducted using the compounds at concentrations of 3, 10, 30, 100, 300, 1000 and 3000 nM (in duplicate) for both receptors.

Another experiment has as its target T2, 5-HT1A receptors (Rattus norvegicus, UniProt P19327).
T2 construct: The assay tissue was rat hippocampus; from tissue; host or cells: rat hippocampus
T2 sequence (P19327 1-422): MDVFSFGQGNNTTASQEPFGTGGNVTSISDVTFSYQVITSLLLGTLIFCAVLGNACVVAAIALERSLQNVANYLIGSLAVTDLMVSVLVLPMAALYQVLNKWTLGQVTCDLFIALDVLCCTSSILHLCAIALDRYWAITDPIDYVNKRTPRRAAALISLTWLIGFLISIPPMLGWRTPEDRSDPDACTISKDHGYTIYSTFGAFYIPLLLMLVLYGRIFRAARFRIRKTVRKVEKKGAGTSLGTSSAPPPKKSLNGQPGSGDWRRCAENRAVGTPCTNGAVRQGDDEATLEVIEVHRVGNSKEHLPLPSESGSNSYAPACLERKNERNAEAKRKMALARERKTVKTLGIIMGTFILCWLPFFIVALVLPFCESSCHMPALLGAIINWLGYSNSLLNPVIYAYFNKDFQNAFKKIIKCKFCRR
Description: In vitro affinity (radioligand binding inhibition) assay, 3[H]-8-OH-DPAT, rat hippocampus. To be noted: for IC50: 3[H]-8-OH-DPAT 1 nM, 3-3000 nM in duplicate, read-out: 5-HT1A CI50; for IC50 / inhibition at 0.03 µM / inhibition at 0.1 µM / inhibition at 0.3 µM: rat hippocampus; for 5-HT1A CI50 compared with the comparative compound: comparison in words/fold versus Flibanserin; for 5-HT2A/5-HT1A CI502A/CI501A: ratio of CI50 5-HT2A to CI50 5-HT1A; for inhibition at 0.03 µM: 30 nM; for inhibition at 0.03 µM / inhibition at 0.1 µM / inhibition at 0.3 µM: read-out: 5-HT1A Inhibition Percentage; for inhibition at 0.1 µM: 100 nM; for inhibition at 0.3 µM: 300 nM. On the procedure: as §1, §2, §3, §4, §5, §6
The affinity with the 5-HT1A receptors was assayed by using 3[H]-8-OH-DPAT (3[H]-8-hydroxy-N,N-dipropyl-2-aminotetraline) (1 nM) as a ligand, and 5-HT (5-hydroxytiptamine-serotonin) (10 μM) as a non-specific ligand. The assay tissue was rat hippocampus.
as §7

Another experiment deals with 5-HT receptors. Description: In vivo efficacy test: Serotonin Syndrome Model in rats (modified Irwin method). Also noted: species or system rat. Particulars: 15 mg/kg intraperitoneal, observed 15, 30 and 60 minutes after administration. As for the experimental part:
For the efficacy assay, the compounds addressed by this invention were submitted to the modified Irwin assay. The assays were conducted by Porsolt, using a specific protocol for evaluation.
In order to determine the in vivo efficacy of the compounds addressed by this invention, the Serotonin Syndrome Model in rats was used. The model was based in the Irwin method (Psychopharmacologia (1968), 13: 222-257), adapted to assess the effects of seroton agonists pursuant to Martin et al (Journal of Pharmacol. Meth. (1985), 13: 193-200) and Ortman et al (Naunyn-Schmiedeberg's Arch. Pharmacol (1981), 316: 225-230).
Two animals from each group were assessed through a series of separate observations. Escitalopram was used as the positive control for the study.
Behavioral and physiological alterations as well as neurotoxicity symptoms, rectal temperature and pupil diameter were recorded.
Additionally, the specific signs related to the stimulation of the 5-HT receptors were observed and quantified, being: head twitches (HT), fore paw treading (FPT), flat body posture (FBP), hind limb splay (HLS), lower lip retraction (LLR) and spontaneous tail flicks (STF) (Straub).
The observations were conducted at 15, 30 and 60 minutes after administration of the compounds being tested.
The compounds were tested as set forth in Examples 1 and 7. As the comparative compound 1,3-dihydro-1-(2-(4-(3-(trifluoromethyl)phenyl)-1-piperazinyl)ethyl)-2H-benzimidizol-2-one (Flibanserin) was used. All the compounds were administered at a dose of 15 mg/kg, intraperitoneal.
The observations of the specific stimulation data of the 5-HT receptors by each compound are presented in the graph given in FIG. 1.

T1 sequence (P14842 whole entry): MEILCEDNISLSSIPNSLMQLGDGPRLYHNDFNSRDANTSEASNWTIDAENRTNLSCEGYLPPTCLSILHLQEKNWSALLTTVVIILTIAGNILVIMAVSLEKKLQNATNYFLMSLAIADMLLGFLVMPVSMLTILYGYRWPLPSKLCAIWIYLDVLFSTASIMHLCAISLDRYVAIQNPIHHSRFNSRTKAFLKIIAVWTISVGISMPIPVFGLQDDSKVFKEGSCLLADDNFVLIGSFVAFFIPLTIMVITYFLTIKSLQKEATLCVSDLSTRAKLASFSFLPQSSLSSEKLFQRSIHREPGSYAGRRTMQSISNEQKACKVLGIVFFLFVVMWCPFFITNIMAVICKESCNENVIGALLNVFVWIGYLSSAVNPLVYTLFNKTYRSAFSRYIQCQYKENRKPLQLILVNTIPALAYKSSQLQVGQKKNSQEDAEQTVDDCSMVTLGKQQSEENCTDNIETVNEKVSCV

Take `CCc1nc2ccccc2c(=O)n1CCN1CCN(c2cccc(C(F)(F)F)c2)CC1` [Example 7, 2-ethyl-3-(2-(4-(3-(trifluoromethyl)phenyl)piperazine-1-yl)ethyl)quinazoline-4 (3H)-one]: on 5-HT2A receptors, the IC50 was determined as 707 nM; the “5-HT2A CI50/affinity compared with the comparative compound” value is “greater affinity than the comparison compound and the compound in Example 1”. Further, at 5-HT1A receptors, the IC50 was 253 nM, the “5-HT1A CI50 compared with the comparative compound” value is given as “five times greater” and the “5-HT2A/5-HT1A CI502A/CI501A” value is recorded as 2.7. In addition, the “signs of stimulation of the 5-HT receptors (HT, FPT, FBP, HLS, LLR, STF)” value (“signs” below) in the experiment with 5-HT receptors was “triggered fore paw treading (FPT) and more spontaneous tail flicks (STF)”.

`CCc1nc2ccccc2c(=O)n1CCN1CCN(c2ccccc2OC)CC1` [Example 9, 2-ethyl-3-(2-(4-(2-methoxyphenyl)piperazine-1-yl)ethyl)quinazoline-4 (3H)-one]: on 5-HT2A receptors, the inhibition at 0.3 µM was found to be 13%, the inhibition at 1 µM came to 46% and the inhibition at 3 µM came to 78%. For the same compound, on 5-HT1A receptors, the inhibition at 0.03 µM came out at 17%, the inhibition at 0.1 µM is 46% and the inhibition at 0.3 µM stood at 69%.

Take `CCc1nc2ccccc2c(=O)n1CCN1CCN(c2ccccc2Cl)CC1` [Example 11, 3-(2-(4-(2-chlorophenyl)piperazine-1-yl)ethyl)-2-ethylquinazoline-4 (3H)-one]: on 5-HT2A receptors, the inhibition at 0.3 µM stood at 25%, the inhibition at 1 µM was 52% and the inhibition at 3 µM is 79%. Further, at 5-HT1A receptors, the inhibition at 0.03 µM is 5%, the inhibition at 0.1 µM worked out at 26% and the inhibition at 0.3 µM was determined as 38%.

Take `O=c1[nH]c2ccccc2n1CCN1CCN(c2cccc(C(F)(F)F)c2)CC1` [Comparative Compound, 1.3-Dihydro-1-(2-(4-(3-(trifluoromethyl)phenyl)-1-piperazinyl)ethyl)-2H-benzimidizol-2-one, reference compound]: at 5-HT2A receptors, the IC50 turned out to be 453 nM. At 5-HT1A receptors, the IC50 was 47 nM and the “5-HT2A/5-HT1A CI502A/CI501A” value is 9.6. The “signs” value with 5-HT receptors is recorded as “only one presented signs of stimulation of the 5-HT receptors, which were spontaneous tail flicks”.

Regarding `CCc1nc2ccccc2c(=O)n1CCN1CCN(c2cccc(C)c2C)CC1` [Example 8, 3-(2-(4-(2,3-dimethylphenyl)piperazine-1-yl)ethyl)-2-ethylquinazoline-4 (3H)-one], on 5-HT2A receptors, the inhibition at 0.3 µM was 67%, the inhibition at 1 µM stood at 86% and the inhibition at 3 µM worked out at 94%. Moreover, at 5-HT1A receptors, the inhibition at 0.03 µM turned out to be 26%, the inhibition at 0.1 µM was determined as 76% and the inhibition at 0.3 µM was 77%.

Regarding `Cc1cccc(N2CCN(CCn3cnc4ccccc4c3=O)CC2)c1C` [Example 3, 3-(2-(4-(2,3-dimethylphenyl)piperazine-1-yl)ethyl)quinazoline-4 (3H)-one], at 5-HT2A receptors, the inhibition at 0.3 µM worked out at 89% and the inhibition at 1 µM came out at 88%. On 5-HT1A receptors, the inhibition at 0.03 µM is 47% and the inhibition at 0.1 µM was 84%.

Turning to `O=c1c2ccccc2ncn1CCN1CCN(c2cccc(C(F)(F)F)c2)CC1` [Example 1, 3-(2-(4-(3-(trifluoromethyl)phenyl)piperazine-1-yl)ethyl)quinazoline-4 (3H)-one], at 5-HT2A receptors, the IC50 came out at 570 nM and the “5-HT2A CI50/affinity compared with the comparative compound” value is listed as “a value slightly higher than the value obtained for the comparative compounds”. For the same compound, on 5-HT1A receptors, the IC50 was found to be 47 nM, the “5-HT1A CI50 compared with the comparative compound” value is on record as “the same CI50 value as the comparative compound” and the “5-HT2A/5-HT1A CI502A/CI501A” value is 12. In the experiment on 5-HT receptors, the “signs” value was “triggered spontaneous tail flicks (STF)”.

For `O=c1c2ccccc2ncn1CCN1CCN(c2ccccc2Cl)CC1` [Example 4, 3-(2-(4-(2-chlorophenyl)piperazine-1-yl)ethyl)quinazoline-4 (3H)-one], on 5-HT2A receptors, the inhibition at 0.3 µM amounted to 48% and the inhibition at 1 µM was 77%. For the same compound, at 5-HT1A receptors, the inhibition at 0.03 µM was found to be 22% and the inhibition at 0.1 µM was 84%.

Take `N#Cc1ccccc1N1CCN(CCn2cnc3ccccc3c2=O)CC1` [Example 5, 3-(2-(4-(2-cyanophenyl)piperazine-1-yl)ethyl)quinazoline-4 (3H)-one]: on 5-HT2A receptors, the inhibition at 0.3 µM is 38% and the inhibition at 1 µM came to 78%. Besides, at 5-HT1A receptors, the inhibition at 0.03 µM was 12% and the inhibition at 0.1 µM stood at 49%.

For the compound `COc1ccccc1N1CCN(CCn2cnc3ccccc3c2=O)CC1` [Example 6, 3-(2-(4-(2-methoxyphenyl)piperazine-1-yl)ethyl)quinazoline-4 (3H)-one], at 5-HT2A receptors, the inhibition at 0.3 µM turned out to be 43% and the inhibition at 1 µM is 63%. On 5-HT1A receptors, the inhibition at 0.03 µM was 38% and the inhibition at 0.1 µM was determined as 66%.

For `CCOc1ccccc1N1CCN(CCn2c(CC)nc3ccccc3c2=O)CC1` [Example 10, 2-ethyl-3-(2-(4-(2-ethoxyphenyl)piperazine-1-yl)ethyl)quinazoline-4 (3H)-one], on 5-HT2A receptors, the inhibition at 0.3 µM was found to be 8%, the inhibition at 1 µM worked out at 27% and the inhibition at 3 µM was 58%. Besides, at 5-HT1A receptors, the inhibition at 0.03 µM turned out to be 26%, the inhibition at 0.1 µM was found to be 51% and the inhibition at 0.3 µM came to 79%.

On to `Cc1ccccc1N1CCN(CCn2cnc3ccccc3c2=O)CC1` [Example 2, 3-(2-(4-o-tolylpiperazine-1-yl)ethyl)quinazoline-4 (3H)-one], for which, on 5-HT2A receptors, the inhibition at 0.3 µM amounted to 61% and the inhibition at 1 µM turned out to be 82%. Further, on 5-HT1A receptors, the inhibition at 0.03 µM was determined as 21% and the inhibition at 0.1 µM was determined as 51%.
